Experimental data: patent publication US7919577B2, “Adrenocorticotropic hormone analogs and related methods” (Colorado Seminary, priority 2004, dated 2011)
No end group written: not given here.

Tested on: dexamethasone-suppressed male FVB/N mice
Test: in vivo Serum Corticosteroid Inhibition Assay (Example 2)
Set-up: species or system mouse
Details: for serum corticosterone at 180 minutes: blood one hour later; for reduction in serum corticosterone levels: ACTH alone normalized to 100%, FIG. 2; for corticosterone induction as percent of that of wildtype ACTH: 1 hour after last peptide injection
Experimental: The in vivo Serum Corticosteroid Inhibition Assay can include sequential administration of the test compound and the corticosteroid-producing compound by the following steps: first, an agent to suppress endogenous ACTH production was administered to a mouse subject, such as an intraperitoneal injection of dexamethasone; second, after waiting a suitable period of time for suppression of endogenous ACTH production (e.g., 1.5-2.0 hours), a test compound was administered to the mouse by a suitable method, such as intraperitoneal injection; third, after waiting a suitable period of time (e.g., 1 hour) for action of the test compound, a compound with corticosteroid-producing activity can be administered to the mouse by a suitable method, such as intraperitoneal injection; and fourth, after waiting a suitable period of time for the biological activity of both administered compounds to occur (e.g., 1 hour), a blood sample was taken from the subject and the level of serum corticosterone was determined by a suitable method, such as a competitive radioimmunoassay using ^125I RIA kit (ICN, Costa Mesa, Calif.). Optionally, steps two and three can be reversed (administering the corticosteroid-producing compound first, followed by administration of the test compound). The in vivo Serum Corticosteroid Inhibition Assay can also include co-administration of the test compound and the corticosteroid-producing compound by the following steps: first, an agent to suppress endogenous ACTH production was administered to a mouse subject, such as an intraperitoneal injection of dexamethasone; second, after waiting a suitable period of time for suppression of endogenous ACTH production (e.g., 1.5-2.0 hours), the corticosteroid-producing compound and a test compound were co-administered to the mouse by a suitable method, such as intraperitoneal injection; and third, after waiting a suitable period of time for the biological activity of both administered compounds to occur (e.g., 1 hour), a blood sample was taken from the subject and the level of serum corticosterone was determined by a suitable method, such as a competitive radioimmunoassay using ^125I RIA kit (ICN, Costa Mesa, Calif.). Also, in some embodiments, the first step in any in vivo Serum Corticosteroid Inhibition Assay can be replaced by a measurement of the initial endogenous corticosteroid or corticosteroid level in the blood of the subject in the manner of step four, instead of administering the agent to suppress ACTH production. Example 2 describes murine in vivo Serum Corticosteroid Inhibition Assays in detail.
A series of separate in vivo Serum Corticosteroid Inhibition Assays were performed to identify ACTH analogs that inhibit ACTH adrenal hormone production in vivo. The serum corticosterone levels of dexamethasone-suppressed mice were measured as described in Example 2 after administration of (1) ACTH (corticosteroid-producing compound), (2) an ACTH analog (test compound) followed by subsequent administration of ACTH, (3) a combination of ACTH and the ACTH analog and (4) the ACTH analog alone.
The in vivo Serum Corticosteroid Inhibition Assay was performed according the following method. The ACTH analog test compounds, such as those showing low activities in Example 1, were tested for their abilities to inhibit adrenal hormone production induced by unmodified ACTH.
First, two to three month-old male FVB/N mice from our colony, five per group, were injected intraperitoneally with dexamethasone (0.4 mg/0.1 ml PBS per mouse; Sigma, St. Louis, Mo.) to suppress their endogenous ACTH production.
Second, ninety to one hundred twenty minutes later, animals were injected subcutaneously between the shoulder blades with wild type ACTH and/or test ACTH analog peptides (1 μg/0.1 mL PBS/0.5% BSA) or with vehicle alone (0.1 mL PBS/0.5% BSA). […]

Substance: N-Ser^1-Tyr-Ser-Met-Glu^5-His-Phe-Arg-Trp-Gly^10-Lys-Pro-Val-Gly-Lys^15-Arg-Ala-Ala-Trp-Val^20-Lys-Val-Tyr-Pro-Ac (SYSMEHFRWGKPVGKRAAWVKVYP; not fully specified; printed as N-Ser1-Tyr-Ser-Met-Glu5-His-Phe-Arg-Trp-Gly10-Lys-Pro-Val-Gly-Lys15-Arg-Ala-Ala-Trp-Val20-Lys-Val-Tyr-Pro-Ac) [AT814]
- serum corticosterone at 180 minutes (ACTH analog alone 120 minutes after dexamethasone (AT), listed as (KKRRP15-19KRAAW) mACTH(1-24)): about 7±7 ng/mL
- serum corticosterone at 180 minutes (ACTH analog alone 120 minutes after dexamethasone (AT), listed as (KKRRP15-19KRAAW)mACTH(1-24)): 7 ± 7 ng/mL
- serum corticosterone at 180 minutes (ACTH analog at 90 minutes, mACTH(1-24) at 120 minutes after dexamethasone (AT90-ACTH120), listed as (KKRRP15-19KRAAW) mACTH(1-24)): 175 ± 27 ng/mL
- serum corticosterone at 180 minutes (ACTH analog at 90 minutes, mACTH(1-24) at 120 minutes after dexamethasone (AT90-ACTH120), listed as (KKRRP15-19KRAWW)mACTH(1-24)): 175 ± 27 ng/mL
- serum corticosterone at 180 minutes (ACTH analog together with mACTH(1-24) at 120 minutes after dexamethasone ((AT + ACTH)120)): 51 ± 8 ng/mL
- serum corticosterone at 180 minutes (ACTH analog together with mACTH(1-24) at 120 minutes after dexamethasone ((AT + ACTH)120), listed as (KKRRP15-19KRAAW)mACTH(1-24)): 51 ± 8 ng/mL
- reduction in serum corticosterone levels (analog 30 minutes before ACTH): ~65%
- reduction in serum corticosterone levels (analog concurrently with ACTH): ~90%
- corticosterone induction as percent of that of wildtype ACTH (applied 30 minutes before the ACTH injection): 35%
- corticosterone induction as percent of that of wildtype ACTH (applied at the same time as the ACTH injection): 10%
